Results on 18 compounds are retold here after patent US9371336B2, “Compounds for treating spinal muscular atrophy” (PTC Therapeutics Inc., priority 2012, dated 2016).

In data set [1] the test system is SMN2 minigene mRNA (SMN2-A minigene construct). The data set can be described thus: SMN2 minigene mRNA splicing RT-qPCR assay in cultured cells. The format is cell-based, human. The conditions noted are these: Homo sapiens, HEK293-H; HEK293H cells stably transfected with SMN2-A minigene, 24 hours, 7-point concentration data; concentration giving 1.5-fold SMN2 full length mRNA relative to vehicle-treated cells; read-out: EC1.5x for production of full length SMN2 mRNA. Put shortly:
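Full-length SMN2 minigene mRNA, measured by exon 7/luciferase-specific RT-qPCR that excludes endogenous SMN1/SMN2, was normalized to GAPDH and expressed relative to vehicle-treated cells via modified ΔΔCt. Stably transfected HEK293H cells received compound (7-point, 3.16-fold series, duplicates) for 24 h at 37 °C.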
In general terms: Quantitative PCR measures a nucleic acid by following its amplification.

A further data set concerns Smn protein. Briefly: Smn protein assay (HTRF) in cultured cells (SMA patient fibroblasts GM03813). The data set is classed as cell-based, human. The conditions noted are these: 48 hours; for maximum fold (Fold) increase of Smn protein: SMA patient fibroblast cells, 7-point concentration curve, relative to vehicle control; for EC1.5x for Smn protein expression: SMA patient fibroblast cells (GM03813), HTRF, 7-point concentration data, concentration producing 1.5 times Smn protein vs DMSO vehicle control. The gist of the method: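 SMA patient fibroblasts (GM03813) were treated 48 h at 37° C with a 7-point, 3.16-fold compound series in triplicate, then lysed in RIPA. Smn was read by HTRF (anti-SMN d2/kryptate, 665/620 nm ratio). ΔF versus blank was divided by vehicle ΔF to give fold Smn increase.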
(TR-FRET usually uses a lanthanide donor and a delayed reading to cut background.)

The term melting point denotes the temperature of the solid-liquid transition.

The compound `Cc1ccn2cc(-c3cc4ccc(N5CCNCC5)nc4oc3=O)nc2c1.Cl` [Cpd 29, 3-(7-methylimidazo[1,2-a]pyridin-2-yl)-7-(piperazin-1-yl)-2H-pyrano[2,3-b]pyridin-2-one hydrochloride] came in with a melting point of 240 to 244 °C. Besides, the EC (1.5-fold) in data set [1] was at most 0.1 µM. Besides, the “maximum fold (Fold) increase of Smn protein” value (shortened to “maximum fold (Fold) increase”) in the data set on Smn protein is “*** (a fold increase between >1.35 and ≦1.5 is indicated by three stars (***))”.

`Cc1csc(-c2cc3ccc(N4CCNCC4)nc3oc2=O)n1.Cl` [Cpd 15, 3-(4-methyl-1,3-thiazol-2-yl)-7-(piperazin-1-yl)-2H-pyrano[2,3-b]pyridin-2-one hydrochloride]: the melting point fell in the range of 238 to 242 °C. Further, the EC (1.5-fold) in data set [1] lay within 3 to 30 µM. In addition, the “maximum fold (Fold) increase” value in the data set on Smn protein was “** (a fold increase between >1.2 and ≦1.35 is indicated by two stars (**))”.

As to `Cc1ccn2cc(-c3cc4ccc(N5CCCNCC5)nc4oc3=O)nc2c1` [Cpd 65, 7-(1,4-diazepan-1-yl)-3-(7-methylimidazo[1,2-a]pyridin-2-yl)-2H-pyrano[2,3-b]pyridin-2-one], the melting point was in the range of 239 to 241 °C. For the same compound, in data set [1], the EC (1.5-fold) is 0.3 to 1 µM. Also, in the data set on Smn protein, the “EC1.5x for Smn protein expression” value was “**** (an EC1.5×≦0.3 μM is indicated by four stars (****))”; the “maximum fold (Fold) increase” value is “**** (a fold increase between >1.5 and ≦1.65 is indicated by four stars (****))”.

`C[C@@H]1CN(c2ccc3cc(-c4cn5cccnc5n4)c(=O)oc3n2)C[C@H](C)N1C` [Cpd 118, 3-(imidazo[1,2-a]pyrimidin-2-yl)-7-[(3R,5S)-3,4,5-trimethylpiperazin-1-yl]-2H-pyrano[2,3-b]pyridin-2-one] came in with a melting point of 286 to 289 °C. Also, the EC (1.5-fold) in data set [1] fell in the range of 0.1 to 0.3 µM. Also, in the data set with Smn protein, the “EC1.5x for Smn protein expression” value is “** (an EC1.5× between >1 and ≦3 μM is indicated by two stars (**))”; the “maximum fold (Fold) increase” value is “*** (a fold increase between >1.35 and ≦1.5 is indicated by three stars (***))”.

`CN1CCCN(c2ccc3cc(-c4cn5cccc(F)c5n4)c(=O)oc3n2)CC1` [Cpd 49, 3-(8-fluoroimidazo[1,2-a]pyridin-2-yl)-7-(4-methyl-1,4-diazepan-1-yl)-2H-pyrano[2,3-b]pyridin-2-one]: the melting point is 269 to 272 °C. Moreover, in data set [1], the EC (1.5-fold) was at most 0.1 µM. In the data set on Smn protein, the “EC1.5x for Smn protein expression” value was “*** (an EC1.5× between >0.3 μM and ≦1 μM is indicated by three stars (***))”; the “maximum fold (Fold) increase” value is “**** (a fold increase between >1.5 and ≦1.65 is indicated by four stars (****))”.

The compound `Cl.O=c1oc2nc(N3CCCNCC3)ccc2cc1-c1cn2cccc(Cl)c2n1` [Cpd 47, 3-(8-chloroimidazo[1,2-a]pyridin-2-yl)-7-(1,4-diazepan-1-yl)-2H-pyrano[2,3-b]pyridin-2-one hydrochloride] gave a melting point of 252 to 255 °C. In addition, in data set [1], the EC (1.5-fold) was at most 0.1 µM. For the same compound, in the data set with Smn protein, the “EC1.5x for Smn protein expression” value is on record as “**** (an EC1.5×≦0.3 μM is indicated by four stars (****))” and the “maximum fold (Fold) increase” value is reported as “***** (a fold increase >1.65 is indicated by five stars (*****))”.

For the compound `CCN1CCCN(c2ccc3cc(-c4cn5cc(C)nc(C)c5n4)c(=O)oc3n2)CC1` [Cpd 128, 3-(6,8-dimethylimidazo[1,2-a]pyrazin-2-yl)-7-(4-ethyl-1,4-diazepan-1-yl)-2H-pyrano[2,3-b]pyridin-2-one], the melting point lay in the range of 289 to 291 °C. Moreover, the EC (1.5-fold) in data set [1] is at most 0.1 µM. Further, in the data set with Smn protein, the “EC1.5x for Smn protein expression” value is recorded as “**** (an EC1.5×≦0.3 μM is indicated by four stars (****))” and the “maximum fold (Fold) increase” value is “***** (a fold increase >1.65 is indicated by five stars (*****))”.

Compound `Cc1ccn2cc(-c3cc4ccc(N5C[C@@H](C)N[C@@H](C)C5)nc4oc3=O)nc2n1` [Cpd 99, 7-[(3R,5S)-3,5-dimethylpiperazin-1-yl]-3-(7-methylimidazo[1,2-a]pyrimidin-2-yl)-2H-pyrano[2,3-b]pyridin-2-one] yielded a melting point of 270 to 273 °C. Besides, the EC (1.5-fold) in data set [1] lay in the range of 0.1 to 0.3 µM. Besides, the “maximum fold (Fold) increase” value in the data set with Smn protein was “*** (a fold increase between >1.35 and ≦1.5 is indicated by three stars (***))”.

Turning to `CCN1CCN(c2ccc3cc(-c4cn5ccc(C)cc5n4)c(=O)oc3n2)CC1` [Cpd 131, 7-(4-ethylpiperazin-1-yl)-3-(7-methylimidazo[1,2-a]pyridin-2-yl)-2H-pyrano[2,3-b]pyridin-2-one], the melting point lay within 258 to 261 °C. Besides, in data set [1], the EC (1.5-fold) was in the range of 0.1 to 0.3 µM. Besides, the “maximum fold (Fold) increase” value in the data set on Smn protein was “*** (a fold increase between >1.35 and ≦1.5 is indicated by three stars (***))”.

For the compound `CCN1CCN(c2ccc3cc(-c4nc(C)cs4)c(=O)oc3n2)CC1` [Cpd 20, 7-(4-ethylpiperazin-1-yl)-3-(4-methyl-1,3-thiazol-2-yl)-2H-pyrano[2,3-b]pyridin-2-one], the melting point fell in the range of 228 to 232 °C. Also, the EC (1.5-fold) in data set [1] is 3 to 30 µM. For the same compound, the “maximum fold (Fold) increase” value with Smn protein is listed as “* (A maximum fold increase ≦1.2 is indicated by one star (*))”.

With `Cc1ccc2nc(-c3cc4cnc(N5CCN(C)CC5)cc4oc3=O)cn2c1` [Cpd 34, 3-(6-methylimidazo[1,2-a]pyridin-2-yl)-7-(4-methylpiperazin-1-yl)-2H-pyrano[3,2-c]pyridin-2-one], the melting point fell in the range of 264 to 268 °C. The EC (1.5-fold) in data set [1] was 1 to 3 µM. The “maximum fold (Fold) increase” value in the data set with Smn protein is “*** (a fold increase between >1.35 and ≦1.5 is indicated by three stars (***))”.

`C[C@@H]1CN[C@@H](C)CN1c1ccc2cc(-c3cn4cccc(F)c4n3)c(=O)oc2n1` [Cpd 92, 7-[(2R,5S)-2,5-dimethylpiperazin-1-yl]-3-(8-fluoroimidazo[1,2-a]pyridin-2-yl)-2H-pyrano[2,3-b]pyridin-2-one]: the melting point fell in the range of 210 to 212 °C. Besides, the EC (1.5-fold) in data set [1] was at most 0.1 µM. Also, in the data set with Smn protein, the “EC1.5x for Smn protein expression” value is given as “**** (an EC1.5×≦0.3 μM is indicated by four stars (****))”; the “maximum fold (Fold) increase” value is “**** (a fold increase between >1.5 and ≦1.65 is indicated by four stars (****))”.

Compound `C[C@@H]1CN(c2ccc3cc(-c4cn5ccccc5n4)c(=O)oc3n2)C[C@H](C)N1C` [Cpd 121, 3-(imidazo[1,2-a]pyridin-2-yl)-7-[(3R,5S)-3,4,5-trimethylpiperazin-1-yl]-2H-pyrano[2,3-b]pyridin-2-one] showed a melting point of 242 to 246 °C. The EC (1.5-fold) in data set [1] was at most 0.1 µM. Also, in the data set with Smn protein, the “EC1.5x for Smn protein expression” value is “* (An EC1.5× for Smn protein expression between >3 μM and ≦10 μM is indicated by one star (*))”; the “maximum fold (Fold) increase” value is “*** (a fold increase between >1.35 and ≦1.5 is indicated by three stars (***))”.

Compound `Cc1ccn2cc(-c3cc4ccc(N5CCN(C)C[C@@H]5C)nc4oc3=O)nc2c1` [Cpd 62, 7-[(2S)-2,4-dimethylpiperazin-1-yl]-3-(7-methylimidazo[1,2-a]pyridin-2-yl)-2H-pyrano[2,3-b]pyridin-2-one] came in with a melting point of 242 to 246 °C. In data set [1], the EC (1.5-fold) is at most 0.1 µM. In the data set with Smn protein, the “EC1.5x for Smn protein expression” value is on record as “**** (an EC1.5×≦0.3 μM is indicated by four stars (****))”; the “maximum fold (Fold) increase” value is “**** (a fold increase between >1.5 and ≦1.65 is indicated by four stars (****))”.

`CN1CCCN(c2ccc3cc(-c4cn5cccnc5n4)c(=O)oc3n2)CC1` [Cpd 36, 3-(imidazo[1,2-a]pyrimidin-2-yl)-7-(4-methyl-1,4-diazepan-1-yl)-2H-pyrano[2,3-b]pyridin-2-one] came in with a melting point of 232 to 234 °C. The EC (1.5-fold) in data set [1] lay within 0.3 to 1 µM. Moreover, in the data set with Smn protein, the “EC1.5x for Smn protein expression” value is “** (an EC1.5× between >1 and ≦3 μM is indicated by two stars (**))”; the “maximum fold (Fold) increase” value is “**** (a fold increase between >1.5 and ≦1.65 is indicated by four stars (****))”.

For `CCN1CCN(c2ccc3cc(-c4cn5cc(C)nc(C)c5n4)c(=O)oc3n2)CC1` [Cpd 140, 3-(6,8-dimethylimidazo[1,2-a]pyrazin-2-yl)-7-(4-ethylpiperazin-1-yl)-2H-pyrano[2,3-b]pyridin-2-one], the melting point fell in the range of 238 to 241 °C. Besides, the EC (1.5-fold) in data set [1] fell in the range of 0.3 to 1 µM. Also, in the data set with Smn protein, the “EC1.5x for Smn protein expression” value is “** (an EC1.5× between >1 and ≦3 μM is indicated by two stars (**))”; the “maximum fold (Fold) increase” value is “**** (a fold increase between >1.5 and ≦1.65 is indicated by four stars (****))”.

Compound `Cl.O=c1oc2cc(N3CCNCC3)ncc2cc1-c1cn2ccccc2n1` [Cpd 42, 3-(imidazo[1,2-a]pyridin-2-yl)-7-(piperazin-1-yl)-2H-pyrano[3,2-c]pyridin-2-one hydrochloride] gave a melting point of 278 to 284 °C. For the same compound, the EC (1.5-fold) in data set [1] was 3 to 30 µM. The “maximum fold (Fold) increase” value in the data set on Smn protein is “** (a fold increase between >1.2 and ≦1.35 is indicated by two stars (**))”.

In turn, `C[C@@H]1CN(C)[C@@H](C)CN1c1ccc2cc(-c3cn4cccc(F)c4n3)c(=O)oc2n1` [Cpd 97, 3-(8-fluoroimidazo[1,2-a]pyridin-2-yl)-7-[(2R,5S)-2,4,5-trimethylpiperazin-1-yl]-2H-pyrano[2,3-b]pyridin-2-one] showed a melting point of 194 to 197 °C. Also, in data set [1], the EC (1.5-fold) is 0.1 to 0.3 µM. In the data set on Smn protein, the “EC1.5x for Smn protein expression” value is “** (an EC1.5× between >1 and ≦3 μM is indicated by two stars (**))”; the “maximum fold (Fold) increase” value is “**** (a fold increase between >1.5 and ≦1.65 is indicated by four stars (****))”.
